{"source": "patent US8236811B2", "about": "“Therapeutic use for treating of leukemia” (Sanofi, priority 2006, dated 2012)", "assay_type_in_all_cases": "in vivo, Scid CB-17 mice", "key": {"[1]": {"tested_on": "KG1a tumors (AML)", "experiment": "Antitumor activity in mice bearing KG1a tumors (AML)", "excerpt": "(§1) Scid CB-17 mice (supplied by Charles River, Lyon, France) are used. At the time of the randomization, the animals have an average weight of 20-22 g and are aged from 6 to 9 weeks.\n(§2) The day before the first administration of a compound, the animals bearing tumors are classified into several groups. Only animals bearing two tumors which are palpable or of determined weight are selected and distributed at random into the treated groups and control groups. Each group is made up of 5 to 10 mice. At the start of the study, each cage is labeled with a card indicating the day of implantation of the tumour, the type of tumour, the compound tested and the mode of administration.\n(§3) The implantation of the tumors is effected as follows: after removal of the tumour from the donor mouse, the tumour is cut up into fragments 2 to 3 mm in diameter, placed in a saline phosphate buffer, and implanted bilaterally with an adapted trocar.\n(§4) The volume of the tumors and its conversion into weight is estimated according to the formula: weight: (in mg)=(a×b^2)/2, where a and b are respectively the length and the width of the tumour (mm). The tumors are measured twice a week with calipers. In the following tables, P indicates the weight of the tumors at the start of treatment.\n(§5) T is the median time in days for reaching a defined value (e.g. 1000 mg) in the treated group and C is the median time in days for reaching this same value in the control group. A value of log10 of the cells killed>0.7 is indicative of antitumor activity of the molecule. […] The median weight of the tumors of each treated group is then determined.\nIV/IP is understood to mean administration by the intravenous route followed by an intraperitoneal route; here the transition is effected between day 15 and day 16. IV/oral is understood to mean administration by the intravenous route followed by an oral route; here the transition is effected between day 30 and day 31. […] On day 31, the compound is administered by the oral route until day 44."}, "[2]": {"tested_on": "KG1 tumours (AML)", "experiment": "Antitumor activity in mice bearing KG1 tumours (AML)", "excerpt": "as §1, §2, §3, §4\nTwo parameters for estimation of antitumor activity are used: log10 of the cells killed (Log cell kill) and T/C. • Calculation of log10 of the cells killed=(T−C)/3.32×Td, where (T−C) is the delay in tumour growth and Td the volume (and weight) doubling time of the tumour (expressed in days). T is the median time in days for reaching a defined value (e.g. 1000 mg) in the treated group and C is the median time in days for reaching this same value in the control group. A value of log10 of the cells killed>0.7 is indicative of antitumor activity of the molecule. A value of log10 of the cells killed >2.8 is indicative of a very high antitumor activity of the molecule (J Liang et al, Invest New Drugs 2005; 23(3):213-24). • Calculation of T/C: the treated groups and the control groups are evaluated when the tumors of the control group reach approximately 1000 mg (median value of the group). The median weight of the tumors of each treated group is then determined. The T/C value ((weight of the tumors of the treated groups/weight of the tumors of the control groups)×100) in percent is an indication of the antitumor efficacy: a T/C value less than or equal to 42% is indicative of anti-tumour activity according to the American National Cancer Institute (NCI). A T/C value less than 10% is representative of very high anti-tumour activity. • The number of mice no longer displaying tumors a long time after the last administration (TFS=tumour-free survival), and considered as cured, can also constitute a parameter of activity of the molecule. • Evaluation of the toxicity of the compound tested: a weight loss greater than or equal to 20% or the appearance of any lethality in connection with the compound is considered as an excessively toxic treatment. As examples, the results obtained with the compound N-[2-(2,1,3-benzothiadiazol-5-ylamino)-6-(2,6-dichlorophenyl)pyrido[2,3-d]pyrimidin-7-yl]-N′-(1,1-dimethyl-ethyl)-urea are given in the following Tables 1 to 7.\n(§6) IV is understood to mean administration by the intravenous route.\nThe cell line KG-1 (AML) is described by Koeffler et al., Science 200: 1153-1154 (1978), and supplied by DSMZ ACC No. 14."}, "[3]": {"tested_on": "Kasumi1 tumours (AML)", "experiment": "Antitumor activity in mice bearing Kasumi1 tumours (AML)", "conditions": "days 25-31, 33, 34, P 178 mg", "excerpt": "as §1, §2, §3, §4, §5, §6"}, "[4]": {"tested_on": "EOL-1 tumours (AML)", "experiment": "Antitumor activity in mice bearing EOL-1 tumours (AML)", "conditions": "days 8-10, 12-17, 19, total dose 300 mg/kg, P 133-146 mg", "excerpt": "as §1\nas §2, with “administration. […]” for “administration.”\n(§7) The volume of the tumors and its conversion into weight is estimated according to the formula: weight: (in mg)=(a×b^2)/2, where a and b are respectively the length and the width of the tumour (mm). The tumors are measured twice a week with calipers. […]\nT is the median time in days for reaching a defined value (e.g. 1000 mg) in the treated group and C is the median time in days for reaching this same value in the control group. […] The median weight of the tumors of each treated group is then determined."}, "[5]": {"tested_on": "CTV1 tumours (AML)", "experiment": "Antitumor activity in mice bearing CTV1 tumours (AML)", "conditions": "25 mg/kg/injection IV/IP, days 17-23, 25-26/28-32, total dose 350 mg/kg, P 100 mg", "excerpt": "as §1\nas §2, with “administration. […]” for “administration.”\nas §7\nTwo parameters for estimation of antitumor activity are used: log10 of the cells killed (Log cell kill) and T/C. • Calculation of log10 of the cells killed=(T−C)/3.32×Td, where (T−C) is the delay in tumour growth and Td the volume (and weight) doubling time of the tumour (expressed in days). […] The median weight of the tumors of each treated group is then determined. […]"}, "[6]": {"tested_on": "K562 tumours (CML)", "experiment": "Antitumor activity in mice bearing K562 tumours (CML)", "conditions": "25 mg/kg/injection IV/IP, days 4-11/12-25, total dose 550 mg/kg", "excerpt": "as §1, §2, §3, §4\n(§8) Two parameters for estimation of antitumor activity are used: log10 of the cells killed (Log cell kill) and T/C. • Calculation of log10 of the cells killed=(T−C)/3.32×Td, where (T−C) is the delay in tumour growth and Td the volume (and weight) doubling time of the tumour (expressed in days). […] A value of log10 of the cells killed >2.8 is indicative of a very high antitumor activity of the molecule (J Liang et al, Invest New Drugs 2005; 23(3):213-24). • Calculation of T/C: the treated groups and the control groups are evaluated when the tumors of the control group reach approximately 1000 mg (median value of the group). The median weight of the tumors of each treated group is then determined. […]"}, "[7]": {"tested_on": "CMLT1 tumours (CML)", "experiment": "Antitumor activity in mice bearing CMLT1 tumours (CML)", "conditions": "20 mg/kg/injection IV/IP, days 3-7/10-14, 17-21, total dose 300 mg/kg", "excerpt": "as §1, §2, §3, §4, §8"}, "[8]": {"conditions": "17 mg/kg/injection IV, days 19-38, total dose 255 mg/kg, P 127-130 mg"}}}
{"smiles": "CC(C)(C)NC(=O)Nc1nc2nc(Nc3ccc4nsnc4c3)ncc2cc1-c1c(Cl)cccc1Cl", "note": "[N-[2-(2,1,3-benzothiadiazol-5-ylamino)-6-(2,6-dichlorophenyl)pyrido[2,3-d]pyrimidin-7-yl]-N′-(1,1-dimethylethyl)-urea]", "values": [{"measurement": "T/C at 22 days", "setting": "[1]; 17 mg/kg/injection IV/IP, days 5-13, 15/16, 18-20, 22, 24-26, 29, 31, total dose 340 mg/kg, P 91-98 mg, DMSO 5% Tween80 10% H2O 85%", "result": 0, "unit": "%"}, {"measurement": "Log10 cells killed", "setting": "[1]; 17 mg/kg/injection IV/IP, days 5-31, total dose 340 mg/kg, P 91-98 mg, DMSO 5% Tween80 10% H2O 85%", "result": ">>6"}, {"measurement": "Log10 cells killed", "setting": "[1]; 25 mg/kg IV days 22-30 then 40 x 2 mg/kg oral days 31-44, total dose 225/1120 mg/kg, P 1000 mg, DMSO 5% Tween80 10% H2O 85%", "result": ">>6"}, {"measurement": "Log10 cells killed", "setting": "[1]; 40 x 2 mg/kg (2 administrations per treatment day) oral, days 15-44, total dose 2400 mg/kg, P 147 mg", "result": 3.0}, {"measurement": "T/C at 22 days", "setting": "[1]; 40 x 2 mg/kg (2 administrations per treatment day) oral, days 15-44, total dose 2400 mg/kg, P 147 mg, DMSO 5% Tween80 10% H2O 85%", "result": 14.9, "unit": "%"}, {"measurement": "tumour weight at the end of second treatment period (tumors no longer measurable)", "setting": "[1]; after IV days 22-30 (25 mg/kg) then oral route day 31 until day 44, P 1000 mg", "result": "< 63", "unit": "mg"}, {"measurement": "TFS (tumour-free survival)", "setting": "[1]; on day 120, 17 mg/kg/injection IV/IP, days 5-31, total dose 340 mg/kg, P 91-98 mg", "result": 80, "unit": "% on"}, {"measurement": "reduction in the tumour weight", "setting": "[1]; tumors at very advanced stage (1000 mg), IV route days 22 to 30 at 25 mg/kg", "result": 80, "unit": "%"}, {"measurement": "T/C at 28 days", "setting": "[2]; 17 mg/kg/injection IV, days 19-28, 30, 32, 34, 36, 38, total dose 255 mg/kg, P 127-130 mg, DMSO 5% Tween80 10% H2O 85%", "result": 0, "unit": "%"}, {"measurement": "Log10 cells killed", "setting": "[2]; [8]", "result": ">6"}, {"measurement": "TFS (tumour-free survival)", "setting": "[2]; [8]", "result": "(100%)"}, {"measurement": "T/C at 28 days", "setting": "[2]; 40 x 2 mg/kg (2 administrations per treatment day) oral, days 18-24, 26, 28, 30, 32, 34, 36, 38, 40, total dose 1200 mg/kg, P 130-132 mg, Labrasol 21% Solutol 5% HCl 0.001N 74%", "result": 0, "unit": "%"}, {"measurement": "Log10 cells killed", "setting": "[2]; 40 x 2 mg/kg oral, days 18-40, total dose 1200 mg/kg, P 130-132 mg", "result": 4.3}, {"measurement": "T/C at 28 days", "setting": "[3]; 15 x 2 mg/kg (two administrations per treatment day) IV, total dose 255 mg/kg, PEG400 22% Solutol 5% G5 73%", "result": 20, "unit": "%"}, {"measurement": "Log10 cells killed", "setting": "[3]; 15 x 2 mg/kg IV, total dose 255 mg/kg", "result": 3}, {"measurement": "T/C at 28 days", "setting": "[3]; 40 x 2 mg/kg (two administrations per treatment day) oral, total dose 680 mg/kg, Labrasol 21% Solutol 5% HCl 0.001N 74%", "result": 17.5, "unit": "%"}, {"measurement": "Log10 cells killed", "setting": "[3]; 40 x 2 mg/kg oral, total dose 680 mg/kg", "result": 2.4}, {"measurement": "T/C at 14 days", "setting": "[4]; 15 x 2 mg/kg (2 administrations per treatment day) IP, PEG400 22% Solutol 5% G5 73%", "result": 5.7, "unit": "%"}, {"measurement": "Log10 cells killed", "setting": "[4]; 15 x 2 mg/kg IP", "result": 3.1}, {"measurement": "Log10 cells killed", "setting": "[5]", "result": 1.7}, {"measurement": "T/C at 25 days", "setting": "[5]; PEG400 22% Solutol 5% G5 73%", "result": 1.6, "unit": "%"}, {"measurement": "Log10 cells killed", "setting": "[6]; P 63-80 mg", "result": 4.2}, {"measurement": "T/C at 28 days", "setting": "[6]; P 63-80 mg, DMSO 5% Tween80 10% H2O 85%", "result": 0, "unit": "%"}, {"measurement": "TFS (tumour-free survival)", "setting": "[6]; on day 130", "result": "(43%"}, {"measurement": "Log10 cells killed", "setting": "[7]; P palpable ~30 mg", "result": 1.5}, {"measurement": "T/C at 22 days", "setting": "[7]; P palpable ~30 mg, DMSO 5% Tween80 10% H2O 85%", "result": 1, "unit": "%"}, {"measurement": "TFS (tumour-free survival)", "setting": "[7]; on day 42", "result": "(50%"}]}
